ChEMBL document CHEMBL1201862, “PubChem BioAssay data set” (2004)
Calls of active or inactive are those of the source.

Assays:
[1] = biological target: Beta-2 adrenergic receptor (Homo sapiens, UniProt P07550); assay: beta2AR agonists driving receptor internalization, dose response, cell-based, FAP fluorogen, flow cytometry, cherry pick 1 (AID 588763); format: functional
Genome polyprotein = Genome polyprotein (dengue virus type 2, UniProt P29990); assay: Dengue-2 NS5 methyltransferase inhibitors, primary screen, biochemical, confirmation dose response (AID 588689); format: functional
Sequence of Genome polyprotein (P29990 2492-3391 limits assumed): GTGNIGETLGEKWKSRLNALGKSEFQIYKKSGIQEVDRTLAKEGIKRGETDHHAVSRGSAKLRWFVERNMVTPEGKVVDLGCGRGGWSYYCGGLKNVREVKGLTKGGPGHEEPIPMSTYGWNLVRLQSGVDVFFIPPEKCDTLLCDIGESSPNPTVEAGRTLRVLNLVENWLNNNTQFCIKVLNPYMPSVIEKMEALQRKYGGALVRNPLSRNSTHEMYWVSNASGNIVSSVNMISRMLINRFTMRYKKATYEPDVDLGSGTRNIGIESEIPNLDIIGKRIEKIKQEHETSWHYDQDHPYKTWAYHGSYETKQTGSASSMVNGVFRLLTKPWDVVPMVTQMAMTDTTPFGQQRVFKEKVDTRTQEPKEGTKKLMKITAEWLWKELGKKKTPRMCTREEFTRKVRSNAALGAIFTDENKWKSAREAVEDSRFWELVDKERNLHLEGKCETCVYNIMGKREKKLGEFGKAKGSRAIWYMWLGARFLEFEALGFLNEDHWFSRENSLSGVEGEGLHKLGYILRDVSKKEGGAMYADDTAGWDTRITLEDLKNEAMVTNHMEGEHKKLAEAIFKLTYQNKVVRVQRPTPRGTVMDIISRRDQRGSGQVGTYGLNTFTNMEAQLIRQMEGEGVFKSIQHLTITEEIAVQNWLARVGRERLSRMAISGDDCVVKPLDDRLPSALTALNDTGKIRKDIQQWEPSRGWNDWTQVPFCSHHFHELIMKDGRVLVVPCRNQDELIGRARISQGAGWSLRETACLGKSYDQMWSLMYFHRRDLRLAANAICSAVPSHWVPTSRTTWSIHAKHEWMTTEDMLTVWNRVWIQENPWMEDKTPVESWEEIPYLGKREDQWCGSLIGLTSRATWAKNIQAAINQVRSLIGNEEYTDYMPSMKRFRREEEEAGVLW

[2] = biological target: T1, Ubiquitin-conjugating enzyme E2 N (Homo sapiens, UniProt P61088); format: functional;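 further: Dose-response confirmation in a TR-FRET assay detecting UBC13-driven polyubiquitin chain formation, inhibition measured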
T1 sequence (P61088 whole entry): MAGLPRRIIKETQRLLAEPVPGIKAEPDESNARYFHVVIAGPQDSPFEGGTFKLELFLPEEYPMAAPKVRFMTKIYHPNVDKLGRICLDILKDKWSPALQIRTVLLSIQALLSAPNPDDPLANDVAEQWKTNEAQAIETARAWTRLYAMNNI

[3] = THP-1 cell cytotoxicity, dose response, cytotoxicity control for non-replicating M. tuberculosis project (AID 489025); format: functional
[4] = Vero E6 cell cytotoxicity, dose response, cytotoxicity control for non-replicating M. tuberculosis project, secondary assay (AID 492998); format: functional, VeroE6; conditions: Vero C1008
cells = format: functional
[5] = biological target: DNA dC->dU-editing enzyme APOBEC-3A (Homo sapiens, UniProt P31941); assay: APOBEC3A DNA deaminase inhibitors, dose response, biochemical (AID 504722); format: functional
Sequence of DNA dC->dU-editing enzyme APOBEC-3A (P31941 whole entry): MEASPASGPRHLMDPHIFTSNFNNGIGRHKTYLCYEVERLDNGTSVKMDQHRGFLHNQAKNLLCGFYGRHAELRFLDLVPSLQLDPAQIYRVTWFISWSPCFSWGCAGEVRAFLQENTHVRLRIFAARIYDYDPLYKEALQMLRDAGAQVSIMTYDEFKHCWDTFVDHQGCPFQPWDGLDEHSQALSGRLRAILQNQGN

[6] = biological target: DNA dC->dU-editing enzyme APOBEC-3G (Homo sapiens, UniProt Q9HC16); assay: Dose Response confirmation of small molecule APOBEC3G DNA Deaminase Inhibitors via a fluorescence-based single-stranded DNA deaminase assay. [Related pubchem assays (depositor defined):AID493012, AID493028]; format: functional
Sequence of DNA dC->dU-editing enzyme APOBEC-3G (Q9HC16 whole entry): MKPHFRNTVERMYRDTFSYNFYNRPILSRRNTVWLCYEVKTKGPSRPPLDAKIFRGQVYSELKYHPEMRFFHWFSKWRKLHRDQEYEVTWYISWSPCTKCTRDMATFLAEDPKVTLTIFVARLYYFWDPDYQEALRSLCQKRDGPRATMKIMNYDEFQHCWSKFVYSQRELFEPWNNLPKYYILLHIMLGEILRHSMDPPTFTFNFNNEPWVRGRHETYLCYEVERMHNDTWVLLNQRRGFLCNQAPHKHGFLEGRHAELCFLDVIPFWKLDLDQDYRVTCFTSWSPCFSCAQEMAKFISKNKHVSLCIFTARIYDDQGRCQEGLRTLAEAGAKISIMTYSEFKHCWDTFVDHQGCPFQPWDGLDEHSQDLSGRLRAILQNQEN

[7] = cytotoxicity in HEK-293T cells, dose response, cytotoxicity control for TCR NF-kB inhibitor project, luminescence, T-cell screen hits (AID 489026); format: functional, cell-based;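 further: cells exposed to compound about 14 hours before the viability readout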
[8] = biological target: T2, Rac GTPase-activating protein 1 (Homo sapiens, UniProt Q9H0H5); assay: MgcRacGAP GTPase-activating activity inhibitors, confirmation, biochemical, ADP Hunter fluorescence, primary and confirmatory (AID 624330); format: functional
T2 sequence (Q9H0H5 whole entry): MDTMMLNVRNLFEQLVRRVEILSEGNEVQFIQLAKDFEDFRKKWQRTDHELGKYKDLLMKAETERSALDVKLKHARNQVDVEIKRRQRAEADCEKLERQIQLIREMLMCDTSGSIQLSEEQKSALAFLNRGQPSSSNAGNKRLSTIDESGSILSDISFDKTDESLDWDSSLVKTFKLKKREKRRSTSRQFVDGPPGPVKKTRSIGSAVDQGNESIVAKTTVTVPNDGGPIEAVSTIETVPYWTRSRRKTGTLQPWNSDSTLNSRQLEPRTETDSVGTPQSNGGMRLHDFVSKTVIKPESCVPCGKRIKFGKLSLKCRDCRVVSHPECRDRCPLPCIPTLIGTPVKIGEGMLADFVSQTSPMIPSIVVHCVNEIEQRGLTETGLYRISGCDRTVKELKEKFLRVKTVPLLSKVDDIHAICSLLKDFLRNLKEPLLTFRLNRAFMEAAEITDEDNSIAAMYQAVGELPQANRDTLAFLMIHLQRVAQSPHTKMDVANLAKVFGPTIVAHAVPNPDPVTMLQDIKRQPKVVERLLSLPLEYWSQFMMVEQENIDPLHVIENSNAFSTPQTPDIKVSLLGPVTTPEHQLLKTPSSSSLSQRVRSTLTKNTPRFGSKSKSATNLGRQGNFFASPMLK

[9] = biological target: T3, Short transient receptor potential channel 4 (Mus musculus, UniProt Q9QUQ5); assay: mouse TRPC4 channel activators, dose response, cell-based, HEK293 TRPC4/mu-opioid, Fluo-4 calcium (AID 434937); format: functional
T3 sequence (Q9QUQ5 whole entry): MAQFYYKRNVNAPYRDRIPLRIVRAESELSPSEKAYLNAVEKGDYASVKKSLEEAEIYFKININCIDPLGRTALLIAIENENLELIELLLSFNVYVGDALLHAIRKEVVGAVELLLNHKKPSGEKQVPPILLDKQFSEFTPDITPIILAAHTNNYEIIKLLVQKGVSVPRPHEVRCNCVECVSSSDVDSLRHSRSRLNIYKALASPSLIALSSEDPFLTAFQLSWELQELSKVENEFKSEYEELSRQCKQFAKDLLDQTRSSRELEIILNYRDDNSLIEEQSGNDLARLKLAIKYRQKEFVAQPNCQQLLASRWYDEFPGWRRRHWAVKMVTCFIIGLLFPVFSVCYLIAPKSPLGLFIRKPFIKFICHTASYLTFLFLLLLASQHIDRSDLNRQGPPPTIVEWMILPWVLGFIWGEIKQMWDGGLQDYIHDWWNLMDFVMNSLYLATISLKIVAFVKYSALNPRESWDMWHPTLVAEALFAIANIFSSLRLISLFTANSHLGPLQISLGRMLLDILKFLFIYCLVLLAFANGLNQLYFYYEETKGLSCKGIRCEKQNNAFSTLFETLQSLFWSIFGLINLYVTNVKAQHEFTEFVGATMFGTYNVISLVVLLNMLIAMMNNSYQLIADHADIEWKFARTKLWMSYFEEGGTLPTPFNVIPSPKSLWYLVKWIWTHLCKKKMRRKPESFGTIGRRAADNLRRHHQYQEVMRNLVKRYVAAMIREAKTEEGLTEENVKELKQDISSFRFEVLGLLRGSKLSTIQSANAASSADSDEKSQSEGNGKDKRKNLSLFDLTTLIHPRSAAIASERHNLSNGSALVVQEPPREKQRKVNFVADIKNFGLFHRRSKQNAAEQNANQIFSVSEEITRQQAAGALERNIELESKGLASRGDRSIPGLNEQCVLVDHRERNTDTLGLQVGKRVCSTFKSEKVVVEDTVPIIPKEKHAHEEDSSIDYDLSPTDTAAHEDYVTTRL

Aminopeptidase N = biological target: T4, Aminopeptidase N (Plasmodium falciparum FcB1/Columbia, UniProt O96935); assay: P. falciparum M1AAP inhibitors, biochemical, fluorogenic H-Leu-NHMec substrate, 1536-well (AID 1445); design: species or system Plasmodium falciparum 3D7, 3D7
T4 sequence (O96935 whole entry): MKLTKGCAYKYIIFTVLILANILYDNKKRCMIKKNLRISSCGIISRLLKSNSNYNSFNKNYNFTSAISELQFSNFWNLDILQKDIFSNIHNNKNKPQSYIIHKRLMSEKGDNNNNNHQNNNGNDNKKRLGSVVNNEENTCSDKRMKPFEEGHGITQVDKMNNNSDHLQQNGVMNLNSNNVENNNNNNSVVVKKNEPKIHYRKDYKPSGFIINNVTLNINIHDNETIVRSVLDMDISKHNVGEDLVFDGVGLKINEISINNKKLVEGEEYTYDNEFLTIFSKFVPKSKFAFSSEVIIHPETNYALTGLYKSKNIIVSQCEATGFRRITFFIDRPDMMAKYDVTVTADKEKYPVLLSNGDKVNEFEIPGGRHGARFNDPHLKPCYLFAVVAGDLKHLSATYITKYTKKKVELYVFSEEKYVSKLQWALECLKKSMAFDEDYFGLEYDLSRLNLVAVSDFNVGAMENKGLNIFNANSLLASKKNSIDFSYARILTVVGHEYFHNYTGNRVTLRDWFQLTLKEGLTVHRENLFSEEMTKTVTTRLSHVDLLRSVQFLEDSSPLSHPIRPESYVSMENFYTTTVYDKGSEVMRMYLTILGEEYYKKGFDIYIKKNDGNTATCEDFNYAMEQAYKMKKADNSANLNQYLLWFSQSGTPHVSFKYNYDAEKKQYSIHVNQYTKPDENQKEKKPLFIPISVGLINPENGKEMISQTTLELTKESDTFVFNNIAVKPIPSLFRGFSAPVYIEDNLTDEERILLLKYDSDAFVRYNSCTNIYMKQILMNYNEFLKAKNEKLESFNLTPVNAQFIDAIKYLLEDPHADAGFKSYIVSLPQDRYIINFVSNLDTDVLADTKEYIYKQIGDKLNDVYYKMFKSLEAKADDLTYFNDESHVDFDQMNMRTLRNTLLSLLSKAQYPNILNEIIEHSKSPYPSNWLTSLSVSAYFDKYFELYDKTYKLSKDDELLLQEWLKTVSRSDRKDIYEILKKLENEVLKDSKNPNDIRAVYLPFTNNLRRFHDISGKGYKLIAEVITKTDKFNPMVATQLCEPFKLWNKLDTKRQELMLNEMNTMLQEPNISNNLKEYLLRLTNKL

[10] = Luminescence Cell-Based Dose Retest to Confirm Inhibitors of Cancer Stem Cells. [Related pubchem assays (depositor defined):AID2717, AID2721]; format: functional; conditions: Homo sapiens
[11] = biological target: Heat shock protein HSP 90-alpha (Homo sapiens, UniProt P07900); format: functional, organism-based
Large T antigen = Large T antigen (Simian virus 40, UniProt P03070); format: functional, Betapolyomavirus macacae;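 further: Confirmatory-stage PubChem screen for compounds that inhibit SV40 T antigen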
Sequence of Large T antigen (P03070 whole entry): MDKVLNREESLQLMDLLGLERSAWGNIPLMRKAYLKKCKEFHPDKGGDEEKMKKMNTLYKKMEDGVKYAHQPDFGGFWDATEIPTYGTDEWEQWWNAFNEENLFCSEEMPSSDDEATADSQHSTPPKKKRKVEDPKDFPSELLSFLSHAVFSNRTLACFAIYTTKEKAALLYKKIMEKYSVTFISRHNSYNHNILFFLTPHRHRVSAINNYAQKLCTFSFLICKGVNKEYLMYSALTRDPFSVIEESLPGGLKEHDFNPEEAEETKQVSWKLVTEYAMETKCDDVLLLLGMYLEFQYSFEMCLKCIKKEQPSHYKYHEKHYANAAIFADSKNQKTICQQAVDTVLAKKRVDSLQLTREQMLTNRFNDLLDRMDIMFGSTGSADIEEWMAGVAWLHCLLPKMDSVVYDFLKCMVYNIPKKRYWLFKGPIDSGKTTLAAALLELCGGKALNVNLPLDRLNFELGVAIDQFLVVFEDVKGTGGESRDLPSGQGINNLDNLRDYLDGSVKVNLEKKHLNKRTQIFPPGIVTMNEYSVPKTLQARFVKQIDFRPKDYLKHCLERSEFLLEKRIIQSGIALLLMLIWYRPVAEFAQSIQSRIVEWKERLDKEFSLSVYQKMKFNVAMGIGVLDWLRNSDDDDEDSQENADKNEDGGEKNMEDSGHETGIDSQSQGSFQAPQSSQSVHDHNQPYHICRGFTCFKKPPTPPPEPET

Leucine aminopeptidase = biological target: T5, Leucine aminopeptidase (Plasmodium falciparum 3D7, UniProt Q8IL11); assay: P. falciparum M17LAP inhibitors, primary screen, biochemical, fluorogenic H-Leu-NHMec substrate, 1536-well (AID 1619); format: functional
T5 sequence (Q8IL11 whole entry): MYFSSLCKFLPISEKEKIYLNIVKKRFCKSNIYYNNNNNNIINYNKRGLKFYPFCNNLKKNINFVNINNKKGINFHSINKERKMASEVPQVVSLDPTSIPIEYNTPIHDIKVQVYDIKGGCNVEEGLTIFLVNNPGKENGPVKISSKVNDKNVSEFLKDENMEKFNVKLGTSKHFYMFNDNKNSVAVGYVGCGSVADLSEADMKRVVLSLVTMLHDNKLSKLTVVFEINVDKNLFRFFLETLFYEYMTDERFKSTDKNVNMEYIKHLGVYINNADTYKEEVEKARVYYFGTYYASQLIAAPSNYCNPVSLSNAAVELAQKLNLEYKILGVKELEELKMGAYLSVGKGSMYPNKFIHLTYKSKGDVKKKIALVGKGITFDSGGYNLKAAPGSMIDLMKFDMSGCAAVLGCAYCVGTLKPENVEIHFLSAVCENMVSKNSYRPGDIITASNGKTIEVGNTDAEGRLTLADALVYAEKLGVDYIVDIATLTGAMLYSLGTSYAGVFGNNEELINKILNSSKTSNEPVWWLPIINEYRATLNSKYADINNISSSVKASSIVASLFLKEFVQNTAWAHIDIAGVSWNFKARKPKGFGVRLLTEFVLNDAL

[12] = microbe, parasite or virus in culture; format: functional; conditions: Mycobacterium tuberculosis

Sequence of Beta-2 adrenergic receptor (P07550 whole entry): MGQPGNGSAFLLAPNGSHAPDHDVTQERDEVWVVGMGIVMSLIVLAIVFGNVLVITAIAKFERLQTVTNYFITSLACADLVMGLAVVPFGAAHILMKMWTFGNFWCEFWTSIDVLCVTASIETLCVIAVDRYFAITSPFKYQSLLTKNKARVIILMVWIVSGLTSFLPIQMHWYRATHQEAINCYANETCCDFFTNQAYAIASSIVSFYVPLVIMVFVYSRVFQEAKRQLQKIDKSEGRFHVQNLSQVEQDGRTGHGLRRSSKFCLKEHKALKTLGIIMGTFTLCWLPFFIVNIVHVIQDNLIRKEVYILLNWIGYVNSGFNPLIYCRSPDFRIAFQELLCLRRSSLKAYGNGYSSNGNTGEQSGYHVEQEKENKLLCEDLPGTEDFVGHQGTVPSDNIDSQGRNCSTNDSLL

With `CSc1ccc(CNC(=O)c2ccc(NC(=O)C3=CSCCO3)cc2)cc1` the EC50 [1] was 0.0482 µM (active).

In the case of `CN(C)c1ccc(C=C2C(=O)NC(=O)NC2=O)cc1[N+](=O)[O-]`, the IC50 (Genome polyprotein) is reported as 16.3 µM (active).

For `O=C(OCc1cccc([N+](=O)[O-])c1)c1cccnc1Cl`, the IC50 [2] was > 20 µM (inactive).

In the case of `CCOC(=O)c1sc2nc(CSc3ccccc3)nc(NCCN(C)C)c2c1C`, the CC50 [3] is reported as 31.2 µM (active), the CC50 [4] is reported as 17.8 µM (active) and the IC50 (cells) is reported as 22.5 µM (active).

With `Cn1c(S)nnc1-c1cc2c(C(F)(F)F)nn(C)c2s1` the IC50 [5] was > 100 µM (inactive) and the IC50 [6] was 1.84 µM (active).

With `c1nc(NCCN2CCOCC2)c2sc3nc(N4CCOCC4)c4c(c3c2n1)CCC4` the EC50 [1] was 3.34 µM (active).

In the case of `CN(C)c1ccc(/C=N/n2c(S)nnc2-c2cccnc2)cc1`, the IC50 [5] is reported as > 100 µM (inactive) and the IC50 [6] is reported as 2.56 µM (active).

With `C/C=C(\C)C(=O)N[C@@H](c1ccccc1)[C@@H](O)C(=O)O[C@H]1C[C@@]2(O)[C@@H](OC(=O)c3ccccc3)C3[C@](C)(C(=O)[C@H](O)C(=C1C)C2(C)C)[C@@H](O)C[C@H]1OC[C@@]31OC(C)=O` (stereo not given in full) the IC50 [7] was > 80 µM (inactive).

For `COC(=O)NCC(c1ccc2c(c1)OCO2)N1CCN(c2ccc(OC)cc2)CC1` (stereo not given), the IC50 [8] was 123 µM (active) and the EC50 [9] was 0.944 µM (active).

For `O=C(NCc1cccs1)C1CCN(S(=O)(=O)c2cccs2)CC1`, the IC50 (Aminopeptidase N) was 51.9 µM (active).

For `CCc1ccc2nc(SCC(=O)Nc3ccccc3N3CCOCC3)c(C#N)cc2c1`, the AC50 [10] was 2.39 µM (active) and the IC50 [7] was > 80 µM (inactive).

In the case of `Cn1cncc1C#Cc1c(-c2ccsc2)sc2ccccc12`, the AC50 [11] is reported as 7.16 µM (active) and the AC50 [10] is reported as 4.68 µM (active).

For `O=C(c1sc2ccccc2c1Cl)N(Cc1cccs1)C1CCS(=O)(=O)C1` (stereo not given), the EC50 [9] was 1.88 µM (active).

For `O=C(Nc1ccc(Cl)cc1Cl)c1cccc(N2C(=O)C=CC2=O)c1`, the CC50 [3] was > 40 µM (active), the IC50 [5] was > 100 µM (inactive) and the IC50 [6] was 13.8 µM (active). For the same compound, the AC50 [11] was 0.295 µM (active).

With `Cc1cccc(C)c1NC(=O)COC(=O)c1ccc([N+](=O)[O-])o1` the AC50 [11] was 2.57 µM (active).

With `CN(CC(=O)Nc1cccc(F)c1)C(=O)c1cn(-c2ccccc2)nc1-c1ccc(Cl)cc1` the AC50 [11] was 8.31 µM (active) and the AC50 [10] was 2.93 µM (active).

In the case of `COC(=O)c1[nH]c2ccc(F)cc2c1NS(=O)(=O)c1ccc(OC)cc1`, the IC50 [7] is reported as > 80 µM (inactive).

In the case of `Cc1ccc2c(c1)c1nnc(SCC(=O)N3CCCc4ccccc43)nc1n2CC(=O)O`, the IC50 (Aminopeptidase N) is reported as 26.8 µM (active).

With `Cc1ccsc1/C=N/n1c(S)nnc1-c1ccncc1` the IC50 [5] was > 100 µM (inactive) and the IC50 [6] was 2.45 µM (active).

For `CC[C@@H](C)[C@@H]1CN([C@@H](C)CN2CCC[C@H]2CN2C(N)=NC[C@@H]2Cc2ccccc2)C(=N)N1CCCC1CCCC1`, the IC50 [2] was > 20 µM (inactive).

For `Oc1ccc(-c2n[nH]c(=S)[nH]2)cc1`, the IC50 (Large T antigen) was 6.95 µM (active), the IC50 [5] was > 100 µM (inactive) and the IC50 (Leucine aminopeptidase) was 20.6 µM (active). The IC50 [6] was 4.02 µM (active).

With `O=C(Nc1ccccc1)c1ccccc1CCc1ccccc1` the EC50 [1] was 1.7 µM (active).

For `Cc1ccc(C)c(-c2nnc(NC(=O)C3=COCCO3)o2)c1`, the CC50 [4] was 19 µM (active), the IC50 (cells) was 6.12 µM (active) and the CC50 [12] was > 40 µM (active).
